Test results from patent US8227636B2, “Histone deacetylase inhibitor prodrugs” (Merck HDAC Research, LLC, priority 2004, dated 2012).

Legend:
[1] = system: murine erythroleukemia cell line SC9; experiment: MTS assay (Cell Titer 96 Aqueous One Solution Cell Proliferation Assay); type: cell-based; conditions: Mus musculus; SC9 cells, 48 hours incubation; unit inferred
Description: The novel compounds of the present invention were tested for their ability to inhibit proliferation of the murine erythroleukemia cell line SC9. The MTS assay, also referred to as the Cell Titer 96 Aqueous One Solution Cell Proliferation Assay, is a colorimetric method for determining the number of viable cells in proliferation, cytotoxicity, or chemosensitivity assays. […] Murine erythroleukemia cells (SC-9) were incubated with vehicle or increasing concentrations of compound for 48 hours.

[2] = molecular target: T1, histone deacetylase, subtype 1 (HDAC1) (Homo sapiens, UniProt Q13547); experiment: HDAC1-Flag assay (in vitro deacetylation assay); type: biochemical; conditions: for inhibition at 10 µM: 10 μM compound, read-out: HDAC1 % INH 10 μM; for inhibition at 100 µM: 100 μM compound, read-out: HDAC1 % INH 100 μM; for IC50: epitope-tagged human HDAC1 complex, substrate at Km, fluorogenic acetylated lysine substrate, read-out: HDAC1 IC50 Ave
T1 construct: Flag; made in house
Description: Novel compounds were tested for their ability to inhibit histone deacetylase, subtype 1 (HDAC1) using an in vitro deacetylation assay. The enzyme source for this assay was an epitope-tagged human HDAC1 complex immuno-purified from stably expressing mammalian cells. The substrate consisted of a commercial product containing an acetylated lysine side chain (BIOMOL Research Laboratories, Inc., Plymouth Meeting, Pa.). Upon deacetylation of the substrate by incubation with the purified HDAC1 complex, a fluorophore is produced that is directly proportional to the level of deacetylation.

T1 sequence (Q13547 whole entry): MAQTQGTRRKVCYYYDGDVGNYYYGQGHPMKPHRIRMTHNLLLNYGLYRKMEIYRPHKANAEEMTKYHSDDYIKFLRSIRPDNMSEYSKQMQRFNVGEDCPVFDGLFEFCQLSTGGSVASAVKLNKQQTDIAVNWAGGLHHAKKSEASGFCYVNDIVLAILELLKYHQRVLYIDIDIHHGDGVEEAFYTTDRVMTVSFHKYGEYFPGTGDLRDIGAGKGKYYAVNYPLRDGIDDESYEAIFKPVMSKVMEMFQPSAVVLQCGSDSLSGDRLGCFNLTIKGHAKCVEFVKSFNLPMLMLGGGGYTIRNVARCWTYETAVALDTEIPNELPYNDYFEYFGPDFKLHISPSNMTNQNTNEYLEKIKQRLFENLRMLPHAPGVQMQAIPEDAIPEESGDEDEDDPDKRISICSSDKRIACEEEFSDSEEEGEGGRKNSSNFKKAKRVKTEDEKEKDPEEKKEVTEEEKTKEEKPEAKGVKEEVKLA

| IC50 [1] [nM] | inhibition at 10 µM [2] [%] | inhibition at 100 µM [2] [%] | IC50 [2] [nM] | Structure (SMILES) |
| --- | --- | --- | --- | --- |
| 785 ± 4.9 | 45 | 79 | 51900 | O=C(CCCCCCC(=O)Nc1ccccc1)NOC(=O)CCCCCCC(=O)Nc1ccccc1 [I, Octanedioic acid phenylamide(7-phenylcarbamoyl-heptanoyloxy)-amide] |
| 443 | 78 | 93 | – | O=C(CCCCCCC(=O)Nc1ccccc1)NOC(=O)[C@@H](Cc1ccccc1)NC(=O)OCc1ccccc1 [XVIII, [1-Benzyl-2-oxo-2-(7-phenylcarbamoyl-heptanoylaminooxy)-ethyl]-carbamic acid benzyl ester] |
| 753 | 94 | 99 | – | O=C(CCCCCCC(=O)Nc1ccccc1)NOC(=O)[C@H](Cc1ccccc1)NC(=O)OCc1ccccc1 [XVII, [1-Benzyl-2-oxo-2-(7-phenylcarbamoyl-heptanoylaminooxy)-ethyl]-carbamic acid benzyl ester] |
| 494 | 20 | 43 | – | COc1cccc(C(=O)ONC(=O)CCCCCCC(=O)Nc2ccccc2)c1 [XII, Octanedioic acid (3-methoxy-benzoyloxy)-amide phenylamide] |
| 862 | 38 | 74 | – | Cc1ccc(C(=O)ONC(=O)CCCCCCC(=O)Nc2ccccc2)cc1 [XIV, Octanedioic acid (4-methyl-benzoyloxy)-amide phenylamide] |
| 1380 | 94 | 99 | – | O=C(CCCCCCC(=O)Nc1ccccc1)NOC(=O)c1ccc(-c2ccccc2)cc1 [VIII, Octanedioic acid (biphenyl-4-carbonyloxy)-amide phenylamide] |
| 1790 | 9 | 22 | – | O=C(CCCCCCC(=O)Nc1ccccc1)NOC(=O)c1ccc2ccccc2c1 [X, Octanedioic acid (naphthalene-2-carbonyloxy)-amide phenylamide] |
| 446 | 87 | 96 | – | CC(C)(C)OC(=O)N[C@@H](Cc1ccccc1)C(=O)ONC(=O)CCCCCCC(=O)Nc1ccccc1 [XIX, [1-Benzyl-2-oxo-2-(7-phenylcarbamoyl-heptanoylaminooxy)-ethyl]-carbamic acid tert-butyl ester] |
| 5220 | 5 | 5 | – | O=C(CCCCCCC(=O)Nc1ccccc1)NOC(=O)c1cccc2ccccc12 [XI, Octanedioic acid (naphthalene-1-carbonyloxy)-amide phenylamide] |
| 592 | 23 | 48 | – | COc1ccccc1C(=O)ONC(=O)CCCCCCC(=O)Nc1ccccc1 [XV, Octanedioic acid (2-methoxy-benzoyloxy)-amide phenylamide] |
| 648 | 26 | 45 | – | O=C(CCCCCCC(=O)Nc1ccccc1)NOC(=O)/C=C/c1ccccc1 [VII, Octanedioic acid (3-phenyl-acryloyloxy)-amide phenylamide] |
| 252 ± 56.5 | 87 | 97 | 582 ± 312 | O=C(CCCCCCC(=O)Nc1ccccc1)NOC(=O)c1cccnc1 [III, Octanedioic acid phenylamide(pyridine-3-carbonyloxy)-amide] |
| 748 | 21 | 65 | – | COc1ccc(C(=O)ONC(=O)CCCCCCC(=O)Nc2ccccc2)cc1 [XIII, Octanedioic acid (4-methoxy-benzoyloxy)-amide phenylamide] |
| 1200 | 20 | 60 | – | O=C(CCCCCCC(=O)Nc1ccccc1)NOC(=O)c1ccccc1 [IX, Octanedioic acid benzoyloxy-amide phenylamide] |
| 491 ± 327 | 64 | 90 | 1680 ± 1200 | O=C(CCCCCCC(=O)Nc1ccccc1)NOC(=O)CCc1ccccc1 [V, Octanedioic acid phenylamide(3-phenyl-propionyloxy)-amide] |
| 434 | 24 | 36 | – | O=C(CCCCCCC(=O)Nc1ccccc1)NOC(=O)c1ccc(Cl)cc1 [XVI, Octanedioic acid (4-chloro-benzoyloxy)-amide phenylamide] |
| 1540 | 27 | 62 | – | O=C(CCCCCCC(=O)Nc1ccccc1)NOC(=O)CCCc1ccccc1 [VI, Octanedioic acid phenylamide(4-phenyl-butyryloxy)-amide] |
| 1760 | 10 | 50 | – | CCCCc1ccc(C(=O)ONC(=O)CCCCCCC(=O)Nc2ccccc2)cc1 [IV, Octanedioic acid (4-butyl-benzoyloxy)-amide phenylamide] |

| Structure (SMILES) | IC50 [1] [nM] | inhibition at 10 µM [2] [%] | inhibition at 100 µM [2] [%] | IC50 [2] [nM] |
| --- | --- | --- | --- | --- |
| CC(=O)ONC(=O)CCCCCCC(=O)Nc1ccccc1 [II, Octanedioic acid acetoxy-amide phenylamide] | 246 ± 78.4 | -17 | 2 | – |
